Laboratory results reported in patent US20240366624A1, “METHODS AND COMPOSITIONS FOR TREATING THROMBOTIC DISEASE” (Washington University, priority 2023, published 2024).

Columns and labels:
WT (C57BL/6) mice = experiment: Ex vivo platelet activation and aggregation after intravenous injection; format: in vivo, mouse
Method: FIG. 19(A-Q) is an exemplary embodiment of B12-5 having an antithrombotic effect without prolonging tail bleeding times in mice in accordance with the present disclosure. FIG. 19(A-C): Ex vivo effects of B12-5. […] One hour later, blood was drawn, followed by isolating platelets. P-selectin exposure (FIG. 19A) and αIIbβ3 integrin activation (FIG. 19B) were assessed in flow cytometry. FIG. 19C: Platelet aggregation was measured after treatment with 0.025 U/mL thrombin. The data represent the mean±SD (n=4). FIG. 19D: The plasma levels of B12-5 were analyzed by liquid chromatography-tandem mass spectrometry (LC-MS/MS) after intravenous injection of the compound (5 μg/g BW) into WT mice and quantified by comparison with a standard curve of B12-5 (mean±SD, n=3). […] The median integrated fluorescence intensities of anti-CD42c (F platelet) and anti-fibrin (F fibrin) antibodies (n=37-42 arterioles in 6 mice per group). Quantification of the antibody signal at a different time point after laser injury. […] Thirty minutes later, tail bleeding times and Hb contents were measured after amputation of the tail tip. […] Twenty-three hours later, neurological deficits were assessed by the Bederson score and grip test, and infarct volume was measured as described in Methods. […] Twenty-three hours later, the neurological deficit and infarct volume were measured as described above. […]

ERO1α = molecular target: T1, ERO1α (Homo sapiens, UniProt Q96HE7); details: from studies; cited from earlier work
T1 sequence (Q96HE7 24-468): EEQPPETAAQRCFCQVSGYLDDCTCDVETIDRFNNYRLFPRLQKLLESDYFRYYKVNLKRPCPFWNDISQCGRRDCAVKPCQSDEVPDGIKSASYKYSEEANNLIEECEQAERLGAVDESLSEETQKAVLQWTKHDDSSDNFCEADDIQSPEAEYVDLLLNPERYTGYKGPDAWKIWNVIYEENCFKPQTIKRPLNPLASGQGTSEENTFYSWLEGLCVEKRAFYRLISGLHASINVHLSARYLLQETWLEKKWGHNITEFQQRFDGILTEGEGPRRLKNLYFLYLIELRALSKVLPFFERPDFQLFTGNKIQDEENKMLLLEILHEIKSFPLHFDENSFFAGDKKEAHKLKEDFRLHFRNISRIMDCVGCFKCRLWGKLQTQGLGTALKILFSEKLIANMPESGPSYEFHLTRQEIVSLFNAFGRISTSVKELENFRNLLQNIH

Structure (SMILES)	inhibitory effects ex vivo (WT (C57BL/6) mice; 2 μg/g BW, data not shown)	P-selectin exposure, αIIbβ3 integrin activation, and aggregation ex vivo (WT (C57BL/6) mice; iv 5 μg/g BW, blood drawn 1 hour later)	IC50 (ERO1α)
O=C(CSc1nc(O)cc(O)n1)N1c2ccccc2Sc2ccccc21 [B12-5]	did not show inhibitory effects	significantly inhibited	
O=C(O)c1cc(N2N=C(C(F)(F)F)/C(=C/c3ccc(-c4ccccc4)o3)C2=O)ccc1Cl [EN460]			1900 nM
